Measurements reported in US20050170020A1, “Using organic and / or inorganic potassium and its salts to treat autoimmune and other health disorders and methods of administering the same” (priority 2003, published 2005).

Tested on: psoriasis affected scalp area
Assay: Phenylephrine applied on psoriasis affected scalp area
Format: in vivo, human
Conditions: topical, inventor
Excerpt: From above it is clear that by reducing the body water loss i.e. by vasoconstriction we can control the psoriasis. To check this theory inventor has applied Phenylephrine which is used for nasal decongestant, on psoriasis affected scalp area. Phenylephrine is an Adrenergic Agent that mimics the sympathetic neurotransmitter norepinephrine (NE). […] This worked by way of reducing water loss of psoriatic skin by vasoconstriction.

CNC[C@H](O)c1cccc(O)c1 [Phenylephrine]
Response of psoriatic skin: lesions reduced
